Tested on: NanoLuc-HaloTag
Experiment: Direct and two-step labeling with azide-DBCO pair, fluorescence imaging on SDS/PAGE gel
Type: biochemical
Conditions: 50 uM compound 1 hour, then 100 uM DBCO-FAM 4 hours
Description: In Example 26, a dye-appended suicide substrate is shown by fluorescence imaging to label NanoLuc. In this example, a suicide substrate with an appended azide is shown to label a NanoLuc-HaloTag protein in a two-step procedure in which the second step is copper-free click chemistry with a DBCO appended FAM dye. […] Structures of the compounds used in this example are illustrated in FIG. 10A.
0.5 uM NanoLuc-HaloTag in 100 mM Tris pH 8.0 was incubated for 1 hour with 50 uM of: Tube 1—JRW-1505; Tube 2—FAM-HaloTag ligand; Tube 3—JRW-0926; Tube 4—JRW-0975; Tube 5—JRW-1022; and Tube 6—SE-azide. In the second step, 100 uM DBCO-FAM was incubated for 4 hours in Tubes 1, 4, 5, and 6, followed by SDS/PAGE gel for all samples (FIG. 10B). The fluorescence (473ex) (Cy2 filter set) of bands corresponding to the size of NanoLuc-HaloTag was read and quantified.
In a second experiment, 1.5 uM NanoLuc-HaloTag in 100 mM Tris (or DPBS buffer) pH 8.0 was incubated with 50 uM of JRW-0975, FAM-HaloTag ligand, JRW-0926, JRW-1022, or SE-azide for 1 hour. In the second step, 100 uM DBCO-FAM was incubated for 4 hours with tubes 3, 4, and 5, followed by SDS/PAGE gel (FIG. 11A). The fluorescence (473ex) (Cy2 filter set) of bands corresponding to the size of NanoLuc-HaloTag was read and quantified (FIG. 11B).

[N-]=[N+]=NCCOCCOCCC(=O)NCCOCCOCCCCCCCl [JRW-1505, 3-(2-(2-azidoethoxy)ethoxy)-N-(2-(2-((6-chlorohexyl)oxy)ethoxy)ethyl)propanamide]
Two-step labeling with DBCO-FAM: two-step labeling occurs

Source: US11655247B2, “Nanoluc suicide substrates” (PROMEGA CORPORATION, priority 2018, dated 2023)
